Measured values published in paper PMC6199744, “Development of Chemical Proteomics for the Folateome and Analysis of the Kinetoplastid Folateome” (ACS Infectious Diseases, 2018).
Like-named read-outs stand apart in the source and are kept apart here.

Key:
Assay type in all cases: binding
[1] = biological target: T1, HeLa cell extract proteins (Homo sapiens, UniProt O00170)
T1 construct: endogenous in cells; host or cells: HeLa cell extract
T1 sequence (O00170 1-330): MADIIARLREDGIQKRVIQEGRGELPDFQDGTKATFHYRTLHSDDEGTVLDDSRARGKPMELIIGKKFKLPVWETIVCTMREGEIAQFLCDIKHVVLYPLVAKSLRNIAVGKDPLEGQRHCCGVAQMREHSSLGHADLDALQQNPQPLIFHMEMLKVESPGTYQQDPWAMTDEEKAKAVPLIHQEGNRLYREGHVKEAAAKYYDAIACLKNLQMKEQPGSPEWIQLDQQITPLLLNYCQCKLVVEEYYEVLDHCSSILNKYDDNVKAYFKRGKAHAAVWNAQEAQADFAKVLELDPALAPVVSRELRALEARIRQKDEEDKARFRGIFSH

[2] = biological target: T2, HeLa cell extract proteins (Homo sapiens, UniProt O94855)
T2 construct: endogenous in cells; host or cells: HeLa cell extract
T2 sequence (O94855 1-1032): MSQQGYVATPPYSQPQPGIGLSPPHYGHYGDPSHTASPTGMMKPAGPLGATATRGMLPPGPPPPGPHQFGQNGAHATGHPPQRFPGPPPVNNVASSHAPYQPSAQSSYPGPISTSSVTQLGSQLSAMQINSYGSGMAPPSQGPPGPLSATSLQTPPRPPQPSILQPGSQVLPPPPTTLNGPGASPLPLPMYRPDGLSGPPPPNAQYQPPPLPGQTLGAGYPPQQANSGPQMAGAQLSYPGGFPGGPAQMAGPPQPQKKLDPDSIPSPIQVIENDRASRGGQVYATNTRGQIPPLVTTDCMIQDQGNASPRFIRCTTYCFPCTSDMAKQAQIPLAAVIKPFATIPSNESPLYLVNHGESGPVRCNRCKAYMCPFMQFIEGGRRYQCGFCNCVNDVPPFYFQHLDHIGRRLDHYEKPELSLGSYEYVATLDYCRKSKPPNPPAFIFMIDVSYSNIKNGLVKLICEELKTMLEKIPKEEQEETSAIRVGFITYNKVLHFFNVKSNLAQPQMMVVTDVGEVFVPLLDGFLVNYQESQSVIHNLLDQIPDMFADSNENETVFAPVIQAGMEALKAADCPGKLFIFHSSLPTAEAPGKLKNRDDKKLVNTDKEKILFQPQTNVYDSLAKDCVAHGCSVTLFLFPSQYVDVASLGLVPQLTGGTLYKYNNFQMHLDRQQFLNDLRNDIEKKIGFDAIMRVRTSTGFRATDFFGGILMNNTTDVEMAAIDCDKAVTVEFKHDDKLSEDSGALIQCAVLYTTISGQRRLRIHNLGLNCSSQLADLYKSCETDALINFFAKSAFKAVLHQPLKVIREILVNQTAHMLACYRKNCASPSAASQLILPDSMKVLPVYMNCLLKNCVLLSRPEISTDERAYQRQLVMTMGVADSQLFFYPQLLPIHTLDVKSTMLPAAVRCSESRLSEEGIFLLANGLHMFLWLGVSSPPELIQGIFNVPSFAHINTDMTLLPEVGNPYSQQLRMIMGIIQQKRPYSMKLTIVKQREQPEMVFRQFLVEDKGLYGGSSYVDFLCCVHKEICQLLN

[3] = biological target: T3, HeLa cell extract proteins (Homo sapiens, UniProt P11498)
T3 construct: endogenous in cells; host or cells: HeLa cell extract
T3 sequence (P11498 21-1178): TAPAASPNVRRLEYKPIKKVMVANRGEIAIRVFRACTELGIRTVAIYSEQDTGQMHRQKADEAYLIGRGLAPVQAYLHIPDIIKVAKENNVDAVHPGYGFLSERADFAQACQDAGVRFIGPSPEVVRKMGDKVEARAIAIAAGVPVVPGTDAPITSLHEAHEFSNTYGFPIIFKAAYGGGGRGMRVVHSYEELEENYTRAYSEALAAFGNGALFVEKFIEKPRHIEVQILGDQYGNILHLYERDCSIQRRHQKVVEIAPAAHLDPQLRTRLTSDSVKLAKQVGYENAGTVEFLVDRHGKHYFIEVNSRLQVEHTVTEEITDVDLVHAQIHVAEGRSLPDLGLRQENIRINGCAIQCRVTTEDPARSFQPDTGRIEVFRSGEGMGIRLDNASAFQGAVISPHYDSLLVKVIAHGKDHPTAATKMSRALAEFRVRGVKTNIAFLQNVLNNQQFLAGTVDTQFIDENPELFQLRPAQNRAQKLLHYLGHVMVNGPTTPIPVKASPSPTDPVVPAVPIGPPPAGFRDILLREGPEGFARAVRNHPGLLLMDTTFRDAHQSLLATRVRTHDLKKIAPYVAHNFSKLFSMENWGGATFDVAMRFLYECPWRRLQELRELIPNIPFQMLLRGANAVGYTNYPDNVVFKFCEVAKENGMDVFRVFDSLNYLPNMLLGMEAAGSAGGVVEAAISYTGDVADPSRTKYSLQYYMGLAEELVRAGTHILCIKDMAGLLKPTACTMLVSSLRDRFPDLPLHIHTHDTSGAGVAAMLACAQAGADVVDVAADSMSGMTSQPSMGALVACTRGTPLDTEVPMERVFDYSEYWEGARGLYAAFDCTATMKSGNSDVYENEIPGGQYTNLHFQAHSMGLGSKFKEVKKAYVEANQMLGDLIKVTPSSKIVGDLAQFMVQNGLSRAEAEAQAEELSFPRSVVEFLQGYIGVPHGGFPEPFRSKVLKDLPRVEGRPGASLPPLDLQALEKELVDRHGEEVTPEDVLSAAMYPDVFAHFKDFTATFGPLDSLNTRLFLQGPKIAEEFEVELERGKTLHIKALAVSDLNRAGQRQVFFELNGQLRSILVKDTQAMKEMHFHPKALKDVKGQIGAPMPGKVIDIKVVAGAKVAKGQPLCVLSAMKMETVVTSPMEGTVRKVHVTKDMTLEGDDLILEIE

[4] = biological target: T4, HeLa cell extract proteins (Homo sapiens, UniProt Q15393)
T4 construct: endogenous in cells; host or cells: HeLa cell extract
T4 sequence (Q15393 whole entry): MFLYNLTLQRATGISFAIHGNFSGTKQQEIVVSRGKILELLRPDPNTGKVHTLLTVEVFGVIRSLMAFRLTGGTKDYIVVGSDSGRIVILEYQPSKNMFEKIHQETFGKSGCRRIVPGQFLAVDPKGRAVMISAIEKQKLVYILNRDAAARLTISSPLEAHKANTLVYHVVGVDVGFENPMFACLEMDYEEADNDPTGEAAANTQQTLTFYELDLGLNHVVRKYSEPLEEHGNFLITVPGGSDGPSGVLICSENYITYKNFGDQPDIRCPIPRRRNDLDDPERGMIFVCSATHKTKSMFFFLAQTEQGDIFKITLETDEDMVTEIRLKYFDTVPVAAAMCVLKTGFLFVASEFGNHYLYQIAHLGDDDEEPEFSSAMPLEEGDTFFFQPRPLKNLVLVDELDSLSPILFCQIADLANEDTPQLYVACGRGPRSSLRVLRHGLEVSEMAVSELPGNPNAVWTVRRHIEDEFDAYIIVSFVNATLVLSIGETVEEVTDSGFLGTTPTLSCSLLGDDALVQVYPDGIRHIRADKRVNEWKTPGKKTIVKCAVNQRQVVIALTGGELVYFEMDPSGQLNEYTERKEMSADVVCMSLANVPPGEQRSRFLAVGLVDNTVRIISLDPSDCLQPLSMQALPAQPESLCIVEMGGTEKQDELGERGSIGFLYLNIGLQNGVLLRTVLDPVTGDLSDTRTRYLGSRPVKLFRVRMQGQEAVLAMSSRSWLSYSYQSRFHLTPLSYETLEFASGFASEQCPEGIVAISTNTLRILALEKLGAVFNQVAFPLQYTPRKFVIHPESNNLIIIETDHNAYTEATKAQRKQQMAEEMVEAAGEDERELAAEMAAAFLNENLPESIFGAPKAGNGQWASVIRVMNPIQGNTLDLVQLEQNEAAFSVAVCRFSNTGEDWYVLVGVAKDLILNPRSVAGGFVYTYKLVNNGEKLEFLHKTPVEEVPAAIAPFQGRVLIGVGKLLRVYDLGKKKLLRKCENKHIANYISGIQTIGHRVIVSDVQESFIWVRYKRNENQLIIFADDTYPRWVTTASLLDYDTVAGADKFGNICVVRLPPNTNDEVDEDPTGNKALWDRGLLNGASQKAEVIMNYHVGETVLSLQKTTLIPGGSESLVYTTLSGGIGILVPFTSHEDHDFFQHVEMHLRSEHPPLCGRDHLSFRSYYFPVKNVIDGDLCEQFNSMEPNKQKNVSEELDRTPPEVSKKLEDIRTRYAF

[5] = biological target: T5, HeLa cell extract proteins (Homo sapiens, UniProt Q8NBJ5)
T5 construct: endogenous in cells; host or cells: HeLa cell extract

[6] = biological target: T6, HeLa cell extract proteins (Homo sapiens, UniProt P09669); details: captured protein COX6C; HeLa
T6 construct: endogenous in cells; host or cells: HeLa cell extract
T6 sequence (P09669 whole entry): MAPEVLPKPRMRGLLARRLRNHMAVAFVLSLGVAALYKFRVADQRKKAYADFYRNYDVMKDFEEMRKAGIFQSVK

[7] = biological target: T7, HeLa cell extract proteins (Homo sapiens, UniProt P46109); details: HeLa; protein CRKL
T7 construct: endogenous in cells; host or cells: HeLa cell extract
T7 sequence (P46109 whole entry): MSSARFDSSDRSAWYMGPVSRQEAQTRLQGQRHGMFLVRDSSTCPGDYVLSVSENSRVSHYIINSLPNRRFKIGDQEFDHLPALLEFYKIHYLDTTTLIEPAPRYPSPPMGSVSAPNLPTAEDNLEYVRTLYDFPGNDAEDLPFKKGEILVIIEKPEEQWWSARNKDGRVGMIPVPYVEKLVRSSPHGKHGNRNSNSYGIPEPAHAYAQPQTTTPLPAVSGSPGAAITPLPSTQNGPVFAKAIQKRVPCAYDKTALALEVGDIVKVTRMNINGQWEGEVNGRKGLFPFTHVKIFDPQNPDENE

[8] = biological target: T8, HeLa cell extract proteins (Homo sapiens, UniProt Q92688); details: HeLa; protein ANP32B (ISOFORM 1 OF ACIDIC LEUCINE-RICH NUCLEAR PHOSPHOPROTEIN 32 FAMILY MEMBER B.)
T8 construct: endogenous in cells; host or cells: HeLa cell extract
T8 sequence (Q92688 whole entry, canonical isoform): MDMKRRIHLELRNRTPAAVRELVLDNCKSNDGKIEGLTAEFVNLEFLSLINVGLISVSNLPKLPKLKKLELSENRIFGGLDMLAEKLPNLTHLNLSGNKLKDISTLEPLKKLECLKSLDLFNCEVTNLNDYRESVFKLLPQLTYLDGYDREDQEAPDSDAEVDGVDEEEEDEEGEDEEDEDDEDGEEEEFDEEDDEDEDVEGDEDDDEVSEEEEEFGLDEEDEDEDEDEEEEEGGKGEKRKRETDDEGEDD

[9] = biological target: T9, HeLa cell extract proteins (Homo sapiens, UniProt Q9BVA1); details: HeLa; protein TUBB2B
T9 construct: endogenous in cells; host or cells: HeLa cell extract
T9 sequence (Q9BVA1 whole entry): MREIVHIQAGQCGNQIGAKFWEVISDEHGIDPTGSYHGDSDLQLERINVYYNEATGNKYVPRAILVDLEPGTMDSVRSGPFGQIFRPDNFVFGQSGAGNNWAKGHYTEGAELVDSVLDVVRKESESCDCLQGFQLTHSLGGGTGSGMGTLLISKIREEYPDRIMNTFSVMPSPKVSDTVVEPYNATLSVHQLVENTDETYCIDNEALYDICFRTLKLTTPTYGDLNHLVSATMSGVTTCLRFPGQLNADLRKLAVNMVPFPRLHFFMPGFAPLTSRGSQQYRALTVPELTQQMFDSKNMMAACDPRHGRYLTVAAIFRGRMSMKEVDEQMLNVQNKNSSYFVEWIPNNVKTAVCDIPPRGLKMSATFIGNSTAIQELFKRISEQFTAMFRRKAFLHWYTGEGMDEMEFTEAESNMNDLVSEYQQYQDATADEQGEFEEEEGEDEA

Nc1nc2c(c(=O)[nH]1)N(C=O)C(CNc1ccc(C(=O)N[C@@H](CCC(=O)O)C(=O)O)cc1)CN2 (some centres unmarked) [LEU, leucovorin]
fold changes relative to vehicle control ([1]; HeLa, captured protein AIP): 0.79
fold changes relative to vehicle control ([2]; HeLa, captured protein SEC24D): 1.12
fold changes relative to vehicle control ([3]; protein PC, HeLa): 0.8
fold changes relative to vehicle control ([4]; HeLa, protein SF3B3): 1.09
fold changes relative to vehicle control ([5]; HeLa, captured protein GLT25D1): 0.95

Nc1nc2[nH]cc(CCc3ccc(C(=O)N[C@@H](CCC(=O)O)C(=O)O)cc3)c2c(=O)[nH]1 [PTX, pemetrexed]
fold changes relative to vehicle control [1]: 0.93
fold changes relative to vehicle control [2]: 1.09
fold changes relative to vehicle control [3]: 0.69
fold changes relative to vehicle control [4]: 1.16
fold changes relative to vehicle control [5]: 0.83

CCCCCCOc1ccc(Cc2cnc(N)nc2N)cc1 [compound 1]
fold changes relative to vehicle control [6]: 0.88
fold changes relative to vehicle control [7]: 0.82
fold changes relative to vehicle control [8]: 1.88 fold
fold changes relative to vehicle control [9]: 1.07

CCCCCCOc1cccc(Cc2cnc(N)nc2N)c1 [compound 2]
fold changes relative to vehicle control [6]: 0.94
fold changes relative to vehicle control [7]: 0.96
fold changes relative to vehicle control [8]: 3.3 fold
fold changes relative to vehicle control [9]: 1.03

Nc1nc2cccc(-c3ccccc3)c2n1Cc1ccc(Cl)c(Cl)c1 [compound 3]
fold changes relative to vehicle control [6]: 1.07
fold changes relative to vehicle control [7]: 1.15
fold changes relative to vehicle control [8]: 4.13 fold
fold changes relative to vehicle control [9]: 1.11

NCCOCCOCC(=O)Nc1nc2ncc(CNc3ccc(C(=O)NC(CCC(=O)O)C(=O)O)cc3)nc2c(=O)[nH]1 (centres unmarked) [compound 6]
fold changes relative to vehicle control ([1]; HeLa, captured protein AIP): 0.92
fold changes relative to vehicle control ([2]; HeLa, captured protein SEC24D): 1.15
fold changes relative to vehicle control ([3]; protein PC, HeLa): 0.97
fold changes relative to vehicle control ([4]; HeLa, protein SF3B3): 1.18
fold changes relative to vehicle control ([5]; HeLa, captured protein GLT25D1): 0.93

NCCCNc1ccc(C(=O)NC(CCC(=O)O)C(=O)O)cc1 (centres unmarked) [compound 7]
fold changes relative to vehicle control ([1]; HeLa, captured protein AIP): 0.99
fold changes relative to vehicle control ([2]; HeLa, captured protein SEC24D): 1.04
fold changes relative to vehicle control ([3]; protein PC, HeLa): 1.1
fold changes relative to vehicle control ([4]; HeLa, protein SF3B3): 1.19
fold changes relative to vehicle control ([5]; HeLa, captured protein GLT25D1): 0.97
